In ChEMBL document CHEMBL5728775, “Pyridinone derivatives and their use as selective ALK-2 inhibitors” (2021):

Key:
[1] = molecular target: Bone morphogenetic protein receptor type-1B (Homo sapiens, UniProt O00238); test: In Vitro Enzyme Inhibition Using a Biochemical Peptide Phosphorylation Assay- Caliper Assay: Example 54:The assays were performed in 384-well, low volume microtiter assay plates in a final reaction volume of 9 ul. Dose-response curves were generated by incubating 10 nM of each kinase together with 2 uM of the fluorescently labeled substrate peptide 5-Fluo-Ahx-KKYQAEEN-T-YDEYENKK-amid (10 mM stock …
Chain of Bone morphogenetic protein receptor type-1B (O00238 whole entry): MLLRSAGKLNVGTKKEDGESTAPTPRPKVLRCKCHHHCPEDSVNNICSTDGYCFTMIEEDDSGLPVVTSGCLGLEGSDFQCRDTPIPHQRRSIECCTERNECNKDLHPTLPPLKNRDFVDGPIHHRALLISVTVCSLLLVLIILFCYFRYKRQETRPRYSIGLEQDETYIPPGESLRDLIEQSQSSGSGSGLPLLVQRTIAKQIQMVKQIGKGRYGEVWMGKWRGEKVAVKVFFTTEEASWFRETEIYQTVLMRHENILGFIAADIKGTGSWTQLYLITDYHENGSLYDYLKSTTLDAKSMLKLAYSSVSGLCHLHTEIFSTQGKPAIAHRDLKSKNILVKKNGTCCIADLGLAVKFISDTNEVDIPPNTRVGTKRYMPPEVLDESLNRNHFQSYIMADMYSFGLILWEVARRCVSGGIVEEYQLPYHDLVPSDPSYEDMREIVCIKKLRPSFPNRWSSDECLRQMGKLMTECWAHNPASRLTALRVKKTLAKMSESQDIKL

Activin receptor type-1 [2] = molecular target: T1, Activin receptor type-1 (Homo sapiens, UniProt Q04771); test: Luminescence-Based ADPGlo Kinase Activity Assay: Example 53: The assays were performed in 384-well, low volume microtiter assay plates in a final reaction volume of 6 ul. Dose-response curves were generated by incubating 10 nM of each kinase in 50 mM Hepes pH 7.5, 0.02% Tween 20, 0.02% BSA, 1 mM DTT, 10 uM Na3VO4, 10 mM ß-Glycerolphosphate, 1 mM MgCl2, 12 mM MnCl2 and 15 uM ATP for 60 min at 32° C. in the presence or absence of compound diluted in DMS. The amount of generated ADP is a measure of kinase activity and is quantified using the ADP-Glo Kinase Assay (Promega) according to manufacturer's instructions. […] and incubation at 32° C. for 60 min. ATP is subsequently converted into a bioluminescent signal by adding 6 ul luciferase assay reagents (Kinase detection buffer+Kinase Detection Substrate (Promega)) and further incubation at 32° C. for 60 min. For the measurement of luminescence a PHERAstar Multilabel Reader was used at a measurement interval time of 0.1 second (optical module for luminescence measurements in the 230 nm to 750 nm wavelength range). The luminescent signal positively correlates with kinase activity.
T1 sequence (Q04771 whole entry): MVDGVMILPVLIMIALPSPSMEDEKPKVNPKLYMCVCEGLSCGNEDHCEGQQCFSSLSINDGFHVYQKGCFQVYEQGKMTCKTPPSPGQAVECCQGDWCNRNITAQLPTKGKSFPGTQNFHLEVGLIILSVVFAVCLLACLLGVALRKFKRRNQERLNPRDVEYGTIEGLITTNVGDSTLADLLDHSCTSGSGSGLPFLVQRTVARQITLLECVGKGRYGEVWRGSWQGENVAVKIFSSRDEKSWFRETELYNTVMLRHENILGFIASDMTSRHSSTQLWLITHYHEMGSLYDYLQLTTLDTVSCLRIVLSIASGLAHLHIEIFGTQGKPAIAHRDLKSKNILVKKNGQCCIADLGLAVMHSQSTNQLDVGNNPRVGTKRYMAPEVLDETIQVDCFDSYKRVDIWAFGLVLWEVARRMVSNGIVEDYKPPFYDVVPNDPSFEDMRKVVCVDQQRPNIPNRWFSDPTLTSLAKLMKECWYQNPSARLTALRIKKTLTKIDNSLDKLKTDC

[3] = molecular target: Bone morphogenetic protein receptor type-1A (Homo sapiens, UniProt P36894); test: Luminescence-Based ADPGlo Kinase Activity Assay: Example 53: The assays were performed in 384-well, low volume microtiter assay plates in a final reaction volume of 6 ul. Dose-response curves were generated by incubating 10 nM of each kinase in 50 mM Hepes pH 7.5, 0.02% Tween 20, 0.02% BSA, 1 mM DTT, 10 uM Na3VO4, 10 mM ß-Glycerolphosphate, 1 mM MgCl2, 12 mM MnCl2 and 15 uM ATP for 60 min at 32° …
Chain of Bone morphogenetic protein receptor type-1A (P36894 whole entry): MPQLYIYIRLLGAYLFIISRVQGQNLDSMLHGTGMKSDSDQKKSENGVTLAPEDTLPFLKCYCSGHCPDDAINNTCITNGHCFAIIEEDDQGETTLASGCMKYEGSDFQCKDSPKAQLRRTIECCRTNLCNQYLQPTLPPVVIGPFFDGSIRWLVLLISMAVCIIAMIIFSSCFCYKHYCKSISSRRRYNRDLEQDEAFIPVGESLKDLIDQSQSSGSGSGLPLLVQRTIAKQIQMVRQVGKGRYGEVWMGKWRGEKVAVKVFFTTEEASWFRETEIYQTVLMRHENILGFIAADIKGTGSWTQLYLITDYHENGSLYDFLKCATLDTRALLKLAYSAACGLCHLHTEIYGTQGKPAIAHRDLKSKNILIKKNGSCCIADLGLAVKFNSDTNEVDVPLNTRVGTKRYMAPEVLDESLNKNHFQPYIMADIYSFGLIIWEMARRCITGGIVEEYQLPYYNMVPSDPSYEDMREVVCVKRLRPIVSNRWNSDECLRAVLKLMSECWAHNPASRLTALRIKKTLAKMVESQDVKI

TGF-beta receptor type-1 = molecular target: T2, TGF-beta receptor type-1 (Homo sapiens, UniProt P36897); test: (§1) In Vitro Enzyme Inhibition Using a Biochemical Peptide Phosphorylation Assay- Caliper Assay: Example 54:The assays were performed in 384-well, low volume microtiter assay plates in a final reaction volume of 9 ul.
T2 sequence (P36897 whole entry): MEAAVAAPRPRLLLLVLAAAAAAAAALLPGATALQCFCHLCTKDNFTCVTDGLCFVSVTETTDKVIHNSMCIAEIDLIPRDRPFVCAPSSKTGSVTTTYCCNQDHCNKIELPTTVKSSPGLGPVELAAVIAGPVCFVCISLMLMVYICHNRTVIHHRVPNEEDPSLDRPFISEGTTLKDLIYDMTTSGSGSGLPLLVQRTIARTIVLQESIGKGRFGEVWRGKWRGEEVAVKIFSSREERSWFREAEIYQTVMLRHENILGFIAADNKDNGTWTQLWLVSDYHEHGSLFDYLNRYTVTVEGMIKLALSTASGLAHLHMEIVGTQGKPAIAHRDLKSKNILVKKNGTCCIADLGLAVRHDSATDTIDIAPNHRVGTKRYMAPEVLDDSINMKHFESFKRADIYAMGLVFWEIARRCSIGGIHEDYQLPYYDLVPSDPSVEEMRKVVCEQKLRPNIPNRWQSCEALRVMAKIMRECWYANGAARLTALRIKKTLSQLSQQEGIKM

Activin receptor type-1 [4] = molecular target: T1, Activin receptor type-1; test: as §1
[5] = molecular target: Activin receptor type-1-like (Homo sapiens, UniProt P37023); test: as §1
Chain of Activin receptor type-1-like (P37023 whole entry): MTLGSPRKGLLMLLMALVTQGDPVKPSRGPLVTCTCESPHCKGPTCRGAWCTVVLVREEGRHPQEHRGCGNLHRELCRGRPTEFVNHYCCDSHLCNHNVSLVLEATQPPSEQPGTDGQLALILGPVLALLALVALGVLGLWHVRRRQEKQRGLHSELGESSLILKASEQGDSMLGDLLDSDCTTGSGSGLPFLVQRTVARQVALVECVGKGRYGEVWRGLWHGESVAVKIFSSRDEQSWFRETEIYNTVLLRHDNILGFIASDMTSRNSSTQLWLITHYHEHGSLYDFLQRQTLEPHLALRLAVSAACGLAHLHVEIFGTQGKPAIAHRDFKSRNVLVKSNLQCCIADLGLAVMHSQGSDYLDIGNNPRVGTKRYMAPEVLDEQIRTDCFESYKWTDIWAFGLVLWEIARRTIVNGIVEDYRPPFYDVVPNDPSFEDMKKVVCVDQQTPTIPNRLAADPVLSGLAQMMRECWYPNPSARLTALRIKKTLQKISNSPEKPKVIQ

- IC50 [1]: 1200 nM
- IC50 (Activin receptor type-1 [2]): 110 nM
- IC50 [3]: 930 nM
- IC50 (TGF-beta receptor type-1): 2400 nM
- IC50 (Activin receptor type-1 [4]): 160 nM
- IC50 [5]: 690 nM
Compound: CC(C)CN1c2ccc(-c3cncc(-c4ccc(=O)n(C(C)C)c4)c3)cc2CS1(=O)=O
